Laboratory results taken from publication PMC11610652 (Archiv Der Pharmazie, 2024).
Like-named read-outs stand apart in the source and are kept apart here.

Columns and labels:
SIRT1 [1] = molecular target: T1, SIRT1 (Homo sapiens, UniProt Q96EB6); test: fluorescence-based deacetylase assay kit, human recombinant enzyme; format: biochemical; conditions: read-out: Inhibition (%±SD) / SIRT1 / 100 μM / 50 μM
T1 sequence (Q96EB6 2-747): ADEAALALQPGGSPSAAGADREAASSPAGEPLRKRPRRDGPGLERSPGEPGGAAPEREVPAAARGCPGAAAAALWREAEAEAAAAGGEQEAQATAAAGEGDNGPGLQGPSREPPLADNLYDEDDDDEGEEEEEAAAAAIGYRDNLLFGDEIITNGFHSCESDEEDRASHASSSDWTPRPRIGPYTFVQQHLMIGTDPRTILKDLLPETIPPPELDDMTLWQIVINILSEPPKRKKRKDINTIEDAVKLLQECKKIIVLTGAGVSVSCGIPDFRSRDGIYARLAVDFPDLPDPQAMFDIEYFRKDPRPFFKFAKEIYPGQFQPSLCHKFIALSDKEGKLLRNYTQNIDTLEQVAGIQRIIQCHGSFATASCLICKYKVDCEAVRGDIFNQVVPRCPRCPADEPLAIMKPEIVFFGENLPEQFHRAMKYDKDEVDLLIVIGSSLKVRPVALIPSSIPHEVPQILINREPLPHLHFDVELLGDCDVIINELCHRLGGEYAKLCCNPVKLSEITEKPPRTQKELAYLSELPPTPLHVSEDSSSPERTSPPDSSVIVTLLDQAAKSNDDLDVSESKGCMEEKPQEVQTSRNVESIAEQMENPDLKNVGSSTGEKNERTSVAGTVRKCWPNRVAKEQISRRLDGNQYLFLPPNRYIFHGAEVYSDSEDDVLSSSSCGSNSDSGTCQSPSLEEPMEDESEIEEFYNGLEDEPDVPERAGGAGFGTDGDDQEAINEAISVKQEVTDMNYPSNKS

SIRT1 [2] = molecular target: T1, SIRT1; test: biochemical; conditions: for inhibition at 100 µM: read-out: Inhibition (%±SD) / SIRT1 / 100 μM
SIRT2 [3] = molecular target: T2, SIRT2 (Homo sapiens, UniProt Q8IXJ6); test: fluorescence-based deacetylase assay kit, human recombinant enzyme; format: biochemical
SIRT2 [4] = molecular target: T3, SIRT2 (Homo sapiens, UniProt Q8IXJ6); test: biochemical; conditions: for inhibition at 50 µM: read-out: Inhibition (%±SD) / SIRT2 / 50 μM
T3 sequence (Q8IXJ6 2-389): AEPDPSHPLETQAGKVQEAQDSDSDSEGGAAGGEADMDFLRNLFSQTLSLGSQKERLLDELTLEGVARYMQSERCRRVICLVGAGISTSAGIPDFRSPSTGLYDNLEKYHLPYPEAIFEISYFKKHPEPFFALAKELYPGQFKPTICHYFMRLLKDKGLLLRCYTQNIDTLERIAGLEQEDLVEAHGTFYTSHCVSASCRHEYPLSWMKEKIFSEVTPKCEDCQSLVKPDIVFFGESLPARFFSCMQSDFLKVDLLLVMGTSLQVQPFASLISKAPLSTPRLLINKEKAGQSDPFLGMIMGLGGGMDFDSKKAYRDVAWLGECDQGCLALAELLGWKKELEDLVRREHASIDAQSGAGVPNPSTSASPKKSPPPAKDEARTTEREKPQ

SIRT3 [5] = molecular target: T4, SIRT3 (Homo sapiens, UniProt Q9NTG7); test: biochemical; conditions: for inhibition at 100 µM: read-out: Inhibition (%±SD) / SIRT3 / 100 μM; for inhibition at 50 µM: read-out: Inhibition (%±SD) / SIRT3 / 50 μM
T4 sequence (Q9NTG7 102-399): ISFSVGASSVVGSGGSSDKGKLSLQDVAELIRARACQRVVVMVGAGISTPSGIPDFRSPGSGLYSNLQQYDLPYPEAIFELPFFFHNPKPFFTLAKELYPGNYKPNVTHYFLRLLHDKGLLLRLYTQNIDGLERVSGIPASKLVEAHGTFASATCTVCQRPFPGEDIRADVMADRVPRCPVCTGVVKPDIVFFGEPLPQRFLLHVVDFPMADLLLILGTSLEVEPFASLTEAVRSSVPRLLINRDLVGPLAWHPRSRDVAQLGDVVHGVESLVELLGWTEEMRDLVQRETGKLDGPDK

SIRT2 [6] = molecular target: T2, SIRT2; test: fluorescence-based deacetylase assay kit, human recombinant enzyme; format: biochemical; conditions: read-out: Inhibition (%±SD) / SIRT2 / 50 μM / SIRT1 / 100 μM
SIRT3 [7] = molecular target: T4, SIRT3; test: as above; format: biochemical; conditions: read-out: Inhibition (%±SD) / SIRT3 / 50 μM
[8] = read-out: Inhibition (%±SD) / SIRT2 / 100 μM

Row | inhibition at 100 µM (SIRT1 [2]) | inhibition at 50 µM (SIRT2 [4]) | inhibition at 100 µM (SIRT2 [4]; [8]) | inhibition at 100 µM (SIRT3 [5]) | also measured | SMILES
1 | – | – | – | – | inhibition at 50 µM (SIRT1 [1]): 90.2% | NC(=O)C1CCCc2c1[nH]c1ccc(Cl)cc21 (racemic) [EX‐527]
2 | 22.5 ± 3.74% | 72.4 ± 2.88% | 106 ± 4.22% | 44.7 ± 2.08% | IC50 (SIRT2 [3]): 9.67 µM | O=C(Nc1ccc2c(c1)C(=O)c1cc(NC(=O)Nc3nccs3)ccc1-2)Nc1nccs1 [SG1, 1,1′‐(9‐Oxo‐9H‐fluorene‐2,7‐diyl)bis[3‐(thiazol‐2‐yl)urea]]
3 | 11.3 ± 1.83% | 21.6 ± 4.19% | 48.5 ± 0.3% | 17.5 ± 0.57% | – | Cn1ccc(NC(=O)Nc2ccc3c(c2)C(=O)c2cc(NC(=O)Nc4ccn(C)n4)ccc2-3)n1 [SG2]
4 | – | 77.8 ± 1.7% | 84.4 ± 4.07% | 18.6 ± 1.54% | IC50 (SIRT2 [3]): 1.95 µM | O=C(Nc1ccc2c(c1)C(=O)c1cc(NC(=O)Nc3ccon3)ccc1-2)Nc1ccon1 [SG3, 1,1′‐(9‐Oxo‐9H‐fluorene‐2,7‐diyl)bis[3‐(isoxazol‐3‐yl)urea]]
5 | 24.7 ± 5.02% | 67.6 ± 3.95% | 101 ± 7.54% | 42.5 ± 4.88% | IC50 (SIRT2 [3]): 6.65 µM | O=C(Nc1ccc2c(c1)C(=O)c1cc(NC(=O)Nc3ccccn3)ccc1-2)Nc1ccccn1 [SG4, 1,1′‐(9‐oxo‐9H‐fluorene‐2,7‐diyl)bis[3‐(pyridin‐2‐yl)urea]]
6 | 71.2 ± 5.29% | – | 102 ± 8.24% | 55.6 ± 4.42% | inhibition at 50 µM (SIRT1 [2]; read-out: Inhibition (%±SD) / SIRT1 / 50 μM): 53.2 ± 1.62%; inhibition at 50 µM (SIRT2 [6]): 62.4%; inhibition at 50 µM (SIRT3 [5]): 51.7 ± 1.56% | O=C(COc1ccc2c(c1)C(=O)c1cc(OCC(=O)Nc3nccs3)ccc1-2)Nc1nccs1 [SG5, 2,2′‐[(9‐Oxo‐9H‐fluorene‐2,7‐diyl)bis(oxy)]bis[N‐(thiazol‐2‐yl)acetamide]]
7 | 27.8 ± 1.31% | 64 ± 3.84% | 65.6 ± 3.34% | 36.8 ± 2.26% | inhibition at 50 µM (SIRT3 [5]): 20.5 ± 7.34% | Cn1ccc(NC(=O)COc2ccc3c(c2)C(=O)c2cc(OCC(=O)Nc4ccn(C)n4)ccc2-3)n1 [SG6]
8 | – | – | 21.5 ± 2.37% | – | – | O=C(COc1ccc2c(c1)C(=O)c1cc(OCC(=O)Nc3ccon3)ccc1-2)Nc1ccon1 [SG7]
9 | 13.2 ± 2.22% | – | 103 ± 2.61% | 83.07 ± 0.27% | inhibition at 50 µM (SIRT3 [7]): 76.4%; inhibition at 50 µM (SIRT2 [6]): 99.8% | O=C(COc1ccc2c(c1)C(=O)c1cc(OCC(=O)Nc3ccccn3)ccc1-2)Nc1ccccn1 [SG8, 2,2′‐[(9‐Oxo‐9H‐fluorene‐2,7‐diyl)bis(oxy)]bis[N‐(pyridin‐2‐yl)acetamide]]
10 | – | 51 ± 2.28% | 71.4 ± 6.51% | 90 ± 3.41% | inhibition at 50 µM (SIRT3 [7]): 85% | O=C(CSc1ccccc1)Nc1ccc2c(c1)C(=O)c1cc(NC(=O)CSc3ccccc3)ccc1-2 [SG9, N,N′‐(9‐Oxo‐9H‐fluorene‐2,7‐diyl)bis[2‐(phenylthio)acetamide]]
11 | – | – | 18.1 ± 1.88% | – | – | Cn1ccnc1SCC(=O)Nc1ccc2c(c1)C(=O)c1cc(NC(=O)CSc3nccn3C)ccc1-2 [SG10]
12 | – | – | 17.2 ± 6.1% | – | – | Cc1cc(C)nc(SCC(=O)Nc2ccc3c(c2)C(=O)c2cc(NC(=O)CSc4nc(C)cc(C)n4)ccc2-3)n1 [SG11]
13 | 88.4 ± 4.45% | – | 85.5 ± 5.68% | 95.84 ± 0.52% | inhibition at 50 µM (SIRT3 [7]): 70.1%; inhibition at 50 µM (SIRT2 [6]): 74.7% | CN(CC(=O)Nc1ccc2c(c1)C(=O)c1cc(NC(=O)CN(C)c3ccccc3)ccc1-2)c1ccccc1 [SG12, N,N′‐(9‐oxo‐9H‐fluorene‐2,7‐diyl)bis{2‐[methyl(phenyl)amino]acetamide}]
14 | – | – | – | – | inhibition at 100 µM (SIRT2 [4]; read-out: % inhibition): 98.52 ± 0.45%; inhibition (SIRT2 [4]; [8]): 78.92 ± 0.67% | Cc1ccc(C(=O)Nc2ccc(S(=O)(=O)O)c3cc(S(=O)(=O)O)cc(S(=O)(=O)O)c23)cc1NC(=O)c1cccc(NC(=O)Nc2cccc(C(=O)Nc3cc(C(=O)Nc4ccc(S(=O)(=O)O)c5cc(S(=O)(=O)O)cc(S(=O)(=O)O)c45)ccc3C)c2)c1 [Suramin]
